Measurements from patent publication US12575572B2, “Systems, methods, and apparatuses for disinfection and decontamination” (priority 2020, dated 2026).

Test system: Phi6 bacteriophage (surrogate for Coronavirus and Ebola)

[O][Cl+][O-] [ClO2, chlorine dioxide]
virions recovered from treated coupons: no virions were recovered
